Experimental data taken from PMC5339874, “Fluorene-9-bisphenol is anti-oestrogenic and may cause adverse pregnancy outcomes in mice” (Nature Communications, 2017).

How the values were obtained:
CD-1 mice [1] = test: Q-RT-PCR validation of the microarray; format: in vivo; conditions: 50 mg/kg bw/d BHPF, 3 days
Procedure: The uteri, ovaries and livers were collected for total RNA isolation. Total RNA was isolated using Trizol reagent (Invitrogen) and further purified by NucleoSpin RNA Clean-up (Macherey-Nagel, Germany). Fluorescence labelling of the RNA samples was performed with a Jingxin cRNA linear amplification and labelling kit (CapitalBio) according to the manufacturer's instructions. The total RNA from each pool of tissue samples (a mixture from three animals) was used for microarray analysis. Cy3 dCTP was used to label the samples. The labelled products were added to SurePrint G3 mouse gene expression 8 × 60 K microarrays (Agilent) and incubated overnight at 42 °C. Following hybridization, the gene arrays were washed and scanned using an Agilent G2565CA Microarray Scanner. Glyceraldehyde 3-phosphate dehydrogenase (GAPDH) was used as an endogenous control to monitor the quality of the target preparation. The data were processed with feature extraction software (GeneSpring GX v.11; Agilent). The raw signals were log-transformed and normalized with the percentile shift normalization method. All arrays met the minimum Agilent QA/QC standards. To verify the data from the gene array, 14 genes were chosen as candidates for Q-RT-PCR. Primers are listed in Supplementary Table 4. GAPDH was used as an endogenous control. Amplification was performed using SYBR Green PCR master mix (Applied Biosystems) according to the manufacturer's instructions. The relative expression was quantified using the 2^(−ΔΔCt) method. The Gene Ontology (GO) and KEGG pathway enrichment analyses were performed with DAVID (refs [40], [41]).

CD-1 mice [2] = test: Subchronic and reproductive toxicity tests
Procedure: Immature CD-1 mice (20 days old) were obtained from Experimental Animal Tech Co. of Weitonglihua (Beijing, China) and acclimatized in an experimental environment with a temperature of 22 °C±2 °C, relative humidity between 40 and 60%, and artificial lighting in a 12 h/12 h light-dark cycle. The animals were fed ad libitum with a basic diet from the Laboratory Animal Center of the Academy of Military Medical Sciences (Beijing, China), and drinking water was provided ad libitum. […] The animals were housed five to a cage until the pairing date. The treatment via oral gavage of each mouse was performed once every 3 days beginning on PND 24. The chemicals were dissolved in peanut oil to the appropriate concentrations. The volume of vehicle or chemical solutions administered was adjusted daily based on body weight measured during the dosing period according to the volume-body weight ratio of 5 ml kg^−1 bw. On PND 60, 10 females of each group were weighed and killed by cervical dislocation. The uteri, ovaries, livers, kidneys and spleens were weighed and collected for histological analysis. At the age of PND 77, males and females were paired. Each morning, the females were examined for the presence of vaginal plugs. Gestational day 1 was defined as the day on which a vaginal plug was found. In cases where pairing was unsuccessful, females were re-mated with proven males of the same group, except that females in the 1.2 mg kg^−1 TAM group were re-mated with proven males of the control group. After a 7-day mating period, the males were weighed and killed, and organs were weighed and collected for further analysis. Cauda epididymal sperm was collected from each mouse and observed under a trinocular microscope (Olympus BX53) in physiological saline. A microscopic video was recorded and analysed for sperm quality evaluation. The treatment via oral gavage was continued for the females until day 19 of pregnancy. On post-partum days 0 and 4, the weights of the dams and pups were recorded and the pups were checked for abnormalities. On post-partum day 4, the dams were weighed and killed, and their organs were weighed and collected for further analysis. The ovaries and uteri were examined for the numbers of corpora lutea and implantation sites, respectively. Finally, the non-pregnant and nulliparous females were killed for histopathological analysis. For histological examination, organs and tissues were fixed in formalin fixation, embedded in paraffin, and sectioned serially at 5 μm. Slides were stained with hematoxylin and eosin (H&E), and observed under a light microscope (Olympus BX53).

## Oc1ccc(C2(c3ccc(O)cc3)c3ccccc3-c3ccccc32)cc1 [BHPF, 9,9-bis(4-hydroxyphenyl)-fluorene]
CD-1 mice [1]
  Actb gene expression change, liver, Q-RT-PCR: 1.25
  Actb gene expression change, ovary, Q-RT-PCR: 1.13
  Actb gene expression change, uterus, Q-RT-PCR: 1.13
  Cfd gene expression change, liver, Q-RT-PCR: -2.43
  Cfd gene expression change, ovary, Q-RT-PCR: 2.28
  Cfd gene expression change, uterus, Q-RT-PCR: -2.85
  Orm1 gene expression change, liver, Q-RT-PCR: -1.41
  Orm1 gene expression change, ovary, Q-RT-PCR: 2.19
  Orm1 gene expression change, uterus, Q-RT-PCR: 5.17
  Spp1 gene expression change, liver, Q-RT-PCR: -1.51
  Spp1 gene expression change, ovary, Q-RT-PCR: -1.68
  Spp1 gene expression change, uterus, Q-RT-PCR: 3.43
  Sprr1a gene expression change, liver, Q-RT-PCR: 4.11
  Sprr1a gene expression change, ovary, Q-RT-PCR: 1.16
  Sprr1a gene expression change, uterus, Q-RT-PCR: -2.01
  Sprr2a2 gene expression change, liver, Q-RT-PCR: 3.43
  Sprr2a2 gene expression change, ovary, Q-RT-PCR: -8.94
  Sprr2a2 gene expression change, uterus, Q-RT-PCR: -5.70
  Sprr2b gene expression change, liver, Q-RT-PCR: 4.76
  Sprr2b gene expression change, ovary, Q-RT-PCR: -9.65
  Sprr2b gene expression change, uterus, Q-RT-PCR: -9.58
  Sprr2f gene expression change, liver, Q-RT-PCR: 4.41
  Sprr2f gene expression change, ovary, Q-RT-PCR: -5.28
  Sprr2f gene expression change, uterus, Q-RT-PCR: -5.78
  Sprr2g gene expression change, liver, Q-RT-PCR: 3.68
  Sprr2g gene expression change, ovary, Q-RT-PCR: -5.70
  Sprr2g gene expression change, uterus, Q-RT-PCR: -1.83
  chil3 gene expression change, liver, Q-RT-PCR: -2.81
  chil3 gene expression change, ovary, Q-RT-PCR: -3.92
  chil3 gene expression change, uterus, Q-RT-PCR: -3.07
  cyp2e1 gene expression change, liver, Q-RT-PCR: 4.06
  cyp2e1 gene expression change, ovary, Q-RT-PCR: 1.69
  cyp2e1 gene expression change, uterus, Q-RT-PCR: 4.00
  ll1f6 gene expression change, liver, Q-RT-PCR: 2.66
  ll1f6 gene expression change, ovary, Q-RT-PCR: -4.29
  ll1f6 gene expression change, uterus, Q-RT-PCR: -4.66
  serp1d gene expression change, liver, Q-RT-PCR: 2.48
  serp1d gene expression change, ovary, Q-RT-PCR: 1.59
  serp1d gene expression change, uterus, Q-RT-PCR: 30.91
CD-1 mice [1]; endogenous control
  GAPDH gene expression change, liver, Q-RT-PCR: 1.00
  GAPDH gene expression change, ovary, Q-RT-PCR: 1.00
  GAPDH gene expression change, uterus, Q-RT-PCR: 1.00
CD-1 mice [2]; 0.4 mg kg^−1 3-d^−1 BHPF
  Absorption sites in the uterus of dams: 0.14±0.36
  Birth weight of pups: 1.66±0.21
  Body weight of female pups at PND 4: 3.08±0.57
  Body weight of male pups at PND 4: 3.30±0.56
  Implantation sites in the uterus of dams: 15.21±2.02
  Number of dams: 14
  Number of live pups per litter: 12.71±2.55
  weight gain of males from PND 30: higher weight gain than the control
CD-1 mice [2]; 0.4 mg kg^−1 bw 3-d^−1 BHPF
  non-pregnant females: 1
CD-1 mice [2]; 2 mg kg^−1 3-d^−1 BHPF
  Absorption sites in the uterus of dams: 0.33±0.65
  Birth weight of pups: 1.59±0.24
  Body weight of female pups at PND 4: 3.04±0.62
  Body weight of male pups at PND 4: 3.18±0.59
  Implantation sites in the uterus of dams: 15.42±2.02
  Number of dams: 12
  Number of live pups per litter: 11.67±2.06
CD-1 mice [2]; 2 mg kg^−1 bw 3-d^−1 BHPF
  non-pregnant females: 3
CD-1 mice [2]; 10 mg kg^−1 3-d^−1 BHPF
  Absorption sites in the uterus of dams: 0.64±0.67
  Birth weight of pups: 1.54±0.18
  Body weight of female pups at PND 4: 3.05±0.44
  Implantation sites in the uterus of dams: 16.09±1.81
  Number of dams: 11
  Number of live pups per litter: 12.73±1.85
CD-1 mice [2]; 10 mg kg^−1 bw 3-d^−1 BHPF
  non-pregnant females: 3
CD-1 mice [2]; 10 mg kg^−1 bw 3-d^−1 BHPF, a pregnant female
  fetal death: a dead fetus in late pregnancy was observed in the uterus
CD-1 mice [2]; 50 mg kg^−1 3-d^−1 BHPF
  Absorption sites in the uterus of dams: 1.09±1.38
  Birth weight of pups: 1.64±0.16
  Body weight of female pups at PND 4: 3.20±0.53
  Body weight of male pups at PND 4: 3.21±0.51
  Implantation sites in the uterus of dams: 14.45±2.42
  Number of dams: 11
  Number of live pups per litter: 10.27±2.53
CD-1 mice [2]; 50 mg kg^−1 bw 3-d^−1 BHPF
  late abortion: one case of late abortion
  maternal death: one unexplained maternal death during parturition
  non-pregnant females: 2
CD-1 mice [2]; BHPF 0.4–50, TAM 1.2 mg kg^−1 bw 3-d^−1
  weight gain before pairing: no significant differences in weight gain
CD-1 mice [2]; CD-1 mice
  doses causing adverse pregnancy outcomes: ≥ 2 mg kg^−1 bw 3-d^−1
  doses inducing atrophic endometria: ≥ 0.4 mg kg^−1 bw 3-d^−1
CD-1 mice [2]; all BHPF-treated groups
  pregnancy-related weight gain: significantly decreased
CD-1 mice [2]; females at PND 60
  analysis of ovary sections: retarded follicular development and reduced the numbers of corpora lutea
CD-1 mice [2]; females at PND 60, 36-day exposure
  histopathological examination of uteri: serious atrophic endometria
CD-1 mice [2]; females at PND 60, BHPF groups, 1.2 mg kg^−1 bw 3-d^−1 TAM
  weights of the ovaries on both sides: not affected
CD-1 mice [2]; intact female mice, oral gavage 36 days from PND 24
  doses significantly decreasing uterine weights and inducing atrophic endometria: ≥ 2 mg kg^−1 3-d^−1
CD-1 mice [2]; males PND 84
  sperm quality: No obvious adverse effects
CD-1 mice [2]; males PND 84, TAM 1.2, BHPF 50 mg kg^−1 bw 3-d^−1 group
  pathological examination of seminal vesicle: one case of unilateral seminal vesicle atrophy
CD-1 mice [2]; non-pregnant females
  histopathological examination of ovaries: haemorrhagic ovary cysts occurred
